These results are taken from ChEMBL document CHEMBL2311300, “Fragment-based design, synthesis, and biological evaluation of N-substituted-5-(4-isopropylthiophenol)-2-hydroxynicotinamide derivatives as novel Mcl-1 inhibitors” (Eur J Med Chem, 2013).

A word on the IC50: it is the midpoint of a concentration-inhibition curve. One may read the Ki as the equilibrium dissociation constant of an inhibitor or competing ligand from its target. In general, Kd refers to the equilibrium constant for the complex coming apart.

Experiment [1] has as its target T1, Induced myeloid leukemia cell differentiation protein Mcl-1 (Homo sapiens, UniProt Q07820). In words: Inhibition of FAM-Bid peptide binding to Mcl1 (unknown origin) expressed in Escherichia coli BL21 by fluorescence polarization-based binding assay.
The test system of a further experiment is K562. Nature of the experiment: Induction of apoptosis in Mcl1 dependent human K562 cells after 48 hrs by Annexin V staining based flow cytometry. Type of experiment: functional, cell-based. The settings on record: K562, 48 h. (Flow cytometry measures light scatter and fluorescence of single cells or particles in a stream.)
The next experiment deals with RS4-11. In words: Induction of apoptosis in Bcl2 dependent human RS4:11 cells after 48 hrs by Annexin V staining based flow cytometry. Type of experiment: functional, cell-based. The following applies: RS4-11, 48 h.
Experiment [2] concerns the target T1, Induced myeloid leukemia cell differentiation protein Mcl-1. In words: Inhibition of biotin-Bim peptide binding to Mcl1 (unknown origin) expressed in Escherichia coli BL21 by ELISA. On the technique in general: ELISA stands for enzyme-linked immunosorbent assay.
Experiment [3] shares this target. In words: Binding affinity to Mcl1 (unknown origin) expressed in Escherichia coli BL21 by ITC assay. (In general: In ITC the heat of successive injections is recorded.)

T1 sequence (Q07820 whole entry): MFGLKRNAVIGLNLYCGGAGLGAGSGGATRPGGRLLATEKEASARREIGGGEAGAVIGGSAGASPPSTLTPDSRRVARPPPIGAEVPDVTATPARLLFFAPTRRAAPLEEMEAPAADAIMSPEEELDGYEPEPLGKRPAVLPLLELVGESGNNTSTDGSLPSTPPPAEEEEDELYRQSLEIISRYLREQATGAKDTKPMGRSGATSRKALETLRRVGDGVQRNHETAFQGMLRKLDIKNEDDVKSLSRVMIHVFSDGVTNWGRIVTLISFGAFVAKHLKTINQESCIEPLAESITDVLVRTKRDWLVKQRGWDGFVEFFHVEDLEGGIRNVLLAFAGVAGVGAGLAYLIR

For the compound `N#Cc1cc(Sc2ccccc2)c[nH]c1=O`, the IC50 in experiment [1] (read-out: IC50) came out at 82.2 µM. Further, the Ki in experiment [1] (read-out: Ki) is 3.29 µM.
As for `CN(C)CC[C@H](CSc1ccccc1)Nc1ccc(S(=O)(=O)NC(=O)c2ccc(N3CCN(Cc4ccccc4-c4ccc(Cl)cc4)CC3)cc2)cc1[N+](=O)[O-]` [ABT 737], the IC50 stood at 16.4 µM with K562 and 0.27 µM in the experiment on RS4-11.
For the compound `CC(C)c1ccc(Sc2cnc(O)c(C(=O)NCCCc3ccccc3)c2)cc1`, in experiment [2], the IC50 was determined as 0.192 µM and affinity was put at a Ki of 0.191 µM.
Regarding `N#Cc1cc(-c2ccccc2)c[nH]c1=O`, in experiment [1] (read-out: IC50), the IC50 turned out to be 261 µM. Besides, the Ki in experiment [1] (read-out: Ki) is 10.4 µM.
`O=C1C(=O)c2cccc3cccc1c23` [ACENAPHTHOQUINONE]: the IC50 in experiment [1] (read-out: IC50) stood at 1420 µM. Also, the Ki in experiment [1] (read-out: Ki) came out at 57 µM.
On to `N#Cc1cc(-c2ccc(-c3ccccc3)cc2)cnc1O`, for which the half-inhibitory concentration (IC50) in experiment [1] (read-out: IC50) came to 316 µM. In experiment [1] (read-out: Ki), the Ki is 12.6 µM.
`N#Cc1cc(-c2ccc(Cl)cc2)c[nH]c1=O`: the IC50 in experiment [1] (read-out: IC50) was 205 µM. Moreover, the Ki in experiment [1] (read-out: Ki) was 8.19 µM.
Take `Cc1ccc(Sc2cnc(O)c(C#N)c2)cc1`: the IC50 in experiment [1] (read-out: IC50) was 63.1 µM. In experiment [1] (read-out: Ki), the Ki is 2.52 µM.
As to `N#CC(C#N)=c1c(=O)c2cccc3cccc1c32`, the IC50 in experiment [1] (read-out: IC50) came out at 71.5 µM. In addition, in experiment [1] (read-out: Ki), the Ki is 2.85 µM.
For the compound `CC(C)c1ccc(Sc2cc(C#N)c(=O)n(Cc3ccccc3)c2)cc1`, in experiment [1] (read-out: IC50), the IC50 turned out to be 383 µM. Moreover, in experiment [1] (read-out: Ki), the Ki turned out to be 15.3 µM.
Turning to `CC(C)c1ccc(Sc2c[nH]c(=O)c(C#N)c2)cc1`, the IC50 in experiment [2] stood at 0.89 µM; in experiment [1] (read-out: IC50), 21.5 µM. Further, the inhibition constant (Ki) in experiment [2] was 0.891 µM; in experiment [1] (read-out: Ki) it was 0.86 µM.
For `N#Cc1cc(Sc2ccc(N)cc2)c[nH]c1=O`, the IC50 in experiment [1] (read-out: IC50) stood at 133 µM. In addition, the Ki in experiment [1] (read-out: Ki) was 5.31 µM.
As for `CC(C)c1ccc(Sc2cnc(O)c(C(=O)NCc3ccccc3)c2)cc1`, the IC50 with K562 is 0.84 µM; in experiment [2] it was 0.054 µM. The compound further gave a dissociation constant (Kd) in experiment [3] of 0.98 µM. In experiment [2], this compound had a Ki of 0.0537 µM.
Regarding `Cc1cc2c(C(C)C)c(O)c(O)c(C=O)c2c(O)c1-c1c(C)cc2c(C(C)C)c(O)c(O)c(C=O)c2c1O` [GOSSYPOL], the 50% inhibitory concentration (IC50) turned out to be 0.17 µM in experiment [2] and 4.8 µM in experiment [1] (read-out: IC50). The Ki in experiment [2] was 0.214 µM; in experiment [1] (read-out: Ki) it was 0.19 µM.
On to `COc1ccnc(O)c1C#N`, for which, in experiment [1], the IC50 entry is listed as “Not Active” and the Ki entry is given as “Not Active”.
With `CCCCNC(=O)c1cc(Sc2ccc(C(C)C)cc2)c[nH]c1=O`, in experiment [2], the IC50 came out at 0.241 µM and the Ki was 0.224 µM.
In experiment [2], `CC(C)NC(=O)c1cc(Sc2ccc(C(C)C)cc2)c[nH]c1=O` gave an IC50 of 0.501 µM and a Ki of 0.468 µM.
Turning to `N#Cc1cc(-c2cccc3ccccc23)cnc1O`, the IC50 in experiment [1] (read-out: IC50) amounted to 158 µM. In experiment [1] (read-out: Ki), the Ki came out at 6.32 µM.
The like results for `CCC(C)(C)c1ccc(Sc2cnc(O)c(C#N)c2)cc1` were, in that order, 178 µM and 7.09 µM.
In experiment [2], `N#CC1=C2C(=NC1=O)c1cccc3c(N4CCSCC4)ccc2c13` showed an IC50 of 0.046 µM and an inhibitory constant (Ki) of 0.0457 µM.
For `N#Cc1cc(Sc2ccc(Br)cc2)c[nH]c1=O`, the IC50 in experiment [1] (read-out: IC50) came to 121 µM. For the same compound, the Ki in experiment [1] (read-out: Ki) was determined as 4.83 µM.
As for `N#Cc1ccc[nH]c1=O`, the IC50 in experiment [1] (read-out: IC50) came to 2730 µM. For the same compound, the Ki in experiment [1] (read-out: Ki) was 109 µM.
